The source of these data is patent US10570108B2, “Substituted benzofuran compounds for the treatment of hepatitis C” (BRISTOL-MYERS SQUIBB COMPANY, priority 2015, dated 2020).

Broadly, the EC50 is the concentration that produces a half-maximal response.

Where only a bound is given, the exact number is not on record here.

One series relates to HCV replicon. Kind of series: HCV replicon luciferase assay. The series is classed as cell-based. The following applies: Hepatitis C virus, Huh-7, 72 h. As for the experimental part:
Cell lines. The cell lines used to evaluate compounds consist of a human hepatocyte derived cell line (Huh-7) that constitutively expresses a genotype 1b (Con-1) HCV replicon or a genotype 1b (Con-1) HCV replicon with an asparagine replacing the cysteine at amino acid 316, or a genotype 2a (JFH-1) replicon, containing a Renilla luciferase reporter gene. These cells were maintained in Dulbecco's modified Eagle medium (DMEM) containing 10% FBS, 100 U/mL penicillin/streptomycin and 1.0 mg/mL G418.
HCV replicon luciferase assay. To evaluate compound efficacy, titrated compounds were transferred to sterile 384-well tissue culture treated plates, and the plates were seeded with HCV replicon cells (50 μL at a density of 2.4×10^3 cells/well) in DMEM containing 4% FBS (final DMSO concentration at 0.5%). After 3 days incubation at 37° C., cells were analyzed for Renilla Luciferase activity using the EnduRen substrate (Promega cat #E6485) according to the manufacturer's directions. Briefly, the EnduRen substrate was diluted in DMEM and then added to the plates to a final concentration of 7.5 μM. The plates were incubated for at least 1 h at 37° C. then read on a Viewlux Imager (PerkinElmer) using a luminescence program. The 50% effective concentration (EC50) was calculated using the four-parameter logistic formula noted above.
A general note: A replicon is a self-replicating genome or part of one, used to study replication in cells.
As for `CNC(=O)c1c(-c2ccc(F)cc2)oc2cc([N+](=O)[O-])c(-c3cccc(C(=O)N(Cc4ccc(OC)cc4OC)C(CO)(CO)CO)c3)cc12` [Compound 3002], the concentration giving a half-maximal response (EC50) is above 1000 nM.

Turning to `CNC(=O)c1c(-c2ccc(F)cc2)oc2cc(N)c(-c3cccc(C(=O)NC(CO)(CO)CO)c3)cc12` [Compound 3003], the EC50 is above 1000 nM.

As for `CCNc1cc2oc(-c3ccc(F)cc3)c(C(=O)NC)c2cc1-c1cccc(C(=O)NC(CO)(CO)CO)c1` [Compound 3004], the EC50 was below 100 nM.

The molecule `CCN(CC)c1cc2oc(-c3ccc(F)cc3)c(C(=O)NC)c2cc1-c1cccc(C(=O)NC(CO)(CO)CO)c1` [Compound 3005] showed a half-maximal effective concentration (EC50) below 100 nM.

With `CCNc1cc2oc(-c3ccc(F)cc3)c(C(=O)NC)c2cc1-c1cccc(C(=O)NC2CCNC2=O)c1` (stereo not shown) [Compound 4001], the EC50 amounted to 58.8 nM.

The molecule `CCNc1cc2oc(-c3ccc(F)cc3)c(C(=O)NC)c2cc1-c1cccc(C(=O)NCC(C)(C)C#N)c1` [Compound 4002] registered an EC50 below 100 nM.

`C#CC1(NC(=O)c2cccc(-c3cc4c(C(=O)NC)c(-c5ccc(F)cc5)oc4cc3NCC)c2)CCCCC1` [Compound 4003] showed an EC50 below 100 nM.

In the case of `CCNc1cc2oc(-c3ccc(F)cc3)c(C(=O)NC)c2cc1-c1cccc(C(=O)NC2(C#N)CCN(Cc3ccccc3)CC2)c1` [Compound 4004], the EC50 was below 100 nM.

In the case of `C#CC1(NC(=O)c2cccc(-c3cc4c(C(=O)NC)c(-c5ccc(F)cc5)oc4cc3N(CC)S(C)(=O)=O)c2)CCCCC1` [Compound 5001], the concentration giving a half-maximal response (EC50) was below 100 nM.

For the molecule `CCN(c1cc2oc(-c3ccc(F)cc3)c(C(=O)NC)c2cc1-c1cccc(C(=O)NC2(C(F)(F)F)CCCC2)c1)S(C)(=O)=O` [Compound 5002], the midpoint of the response, the EC50, lay at 7 nM.

In the case of `CCN(c1cc2oc(-c3ccc(F)cc3)c(C(=O)NC)c2cc1-c1cccc(C(=O)N[C@@H]2CCNC2=O)c1)S(C)(=O)=O` [Compound 5003], the EC50 fell in the range of 100 to 1000 nM.

`CCN(c1cc2oc(-c3ccc(F)cc3)c(C(=O)NC)c2cc1-c1cccc(C(=O)N[C@H]2CCNC2=O)c1)S(C)(=O)=O` [Compound 5004] registered an EC50 of 100 to 1000 nM.

In turn, `CCN(c1cc2oc(-c3ccc(F)cc3)c(C(=O)NC)c2cc1-c1cccc(C(=O)NC2(C#N)CCN(C(=O)OC(C)(C)C)CC2)c1)S(C)(=O)=O` [Compound 5005] displayed an EC50 below 100 nM.

For `CCN(c1cc2oc(-c3ccc(F)cc3)c(C(=O)NC)c2cc1-c1cccc(C(=O)NC2(C#N)CCc3cc(OC)ccc3C2)c1)S(C)(=O)=O` (stereo not shown) [Compound 5006], the EC50 is below 100 nM.

On to `CCN(c1cc2oc(-c3ccc(F)cc3)c(C(=O)NC)c2cc1-c1cccc(C(=O)NC2(C#N)CCOCC2)c1)S(C)(=O)=O` [Compound 5007], for which the midpoint of the response, the EC50, lay at 4.2 nM.

Molecule `CNC(=O)c1c(-c2ccc(F)cc2)oc2cc(N(CC3CC3)S(C)(=O)=O)c(-c3cccc(C(=O)NC(C)(C)C=O)c3)cc12` [Compound 6001] showed an EC50 below 100 nM.

The molecule `CNC(=O)c1c(-c2ccc(F)cc2)oc2cc(N(CCF)S(C)(=O)=O)c(-c3cccc(C(=O)NCC4CCCC4NC(=O)OC(C)(C)C)c3)cc12` (stereo not shown) [Compound 7001] returned an EC50 below 100 nM.

A further series has as its system HCV.
Assay: not given
The following applies: extended dosing of the combination regimens; cited from earlier work.
Turning to `CNC(=O)c1c(-c2ccc(F)cc2)oc2cc(N(CCO)S(C)(=O)=O)c(C3CC3)cc12` [HCV-796], the hepatic toxicity result is on record as “hepatic toxicity observed”.

Still in this series, the particulars now being: single agent or combined with interferon and ribavirin; cited from earlier work.
On to `CNC(=O)c1c(-c2ccc(F)cc2)oc2cc(N(CCO)S(C)(=O)=O)c(C3CC3)cc12` [HCV-796], for which the “HCV RNA levels in patients” value is “reduce HCV RNA levels”.
